Measured values taken from article PMC6649662, “A molecular basis of human T cell receptor autoreactivity toward self-phospholipids” (Science immunology, 2017).

Assays:
[1] = molecular target: T1, CD1b (CD1b-β2m) (Homo sapiens, UniProt P29016); experiment: lipid loading, isoelectric focusing shift and anion exchange purification; assay type: binding; conditions: loaded in vitro
T1 construct: soluble, transmembrane-truncated CD1b with β2m; from HEK 293S GnTI- or Trichoplusia ni High Five cells; lipid-loaded and purified; with Beta-2-microglobulin

[2] = molecular target: T1, CD1b (CD1b-β2m); experiment: X-ray crystal structure; conditions: antigen-binding cleft, with scaffold lipids; weak density for head group

SMILES	lipid loading, isoelectric focusing shift and anion exchange purification [1]	X-ray crystal structure [2]
CCCCCCCC/C=C\CCCCCCCC(=O)O[C@H](COC(=O)CCCCCCCCCCCCCCC)COP(=O)(O)O[C@@H]1[C@H](O)[C@H](O)[C@@H](O)[C@H](O)[C@H]1O [PI, phosphatidylinositol]	phospholipids are loaded into CD1b at high occupancy and purified to homogeneity	–
CCCCCCCC/C=C\CCCCCCCC(=O)O[C@H](COC(=O)CCCCCCCCCCCCCCC)COP(=O)(O)OC[C@H](N)C(=O)O [PS, phosphatidylserine]	–	structures of the PG90 TCR and the CD1b-PS and CD1b- PA complexes
CCCCCCCC/C=C\CCCCCCCC(=O)O[C@H](COC(=O)CCCCCCCCCCCCCCC)COP(=O)(O)O [PA, phosphatidic acid]	–	structures of the PG90 TCR and the CD1b-PS and CD1b- PA complexes
CCCCCCCC/C=C\CCCCCCCC(=O)O[C@H](COC(=O)CCCCCCCCCCCCCCC)COP(=O)(O)OCCN [PE, phosphatidylethanolamine]	phospholipids are loaded into CD1b at high occupancy and purified to homogeneity	–
